Several values for one entry are separate records, joined by “and”; a condition that tells them apart may be missing. Equal entries are not always repeated.
Experiments:
HEK293 cells = details: cited from earlier work
[1] = test system: Dirofilaria immitis microfilariae; experiment: Dirofilaria immitis microfilariae motility (optical flow, ImageXpress/wrmXpress) and CellTox Green viability, second lab
Procedure: We also conducted Dirofilaria immitis experiments in the lab of M. Zamanian (Univeristy of Wisconsin). For this experiment, shown in Supplementary Fig. 6, Microfilaremic blood was obtained from the NIH/NIAID Filariasis Research Reagent Resource Center (FR3)[70]. Blood was drawn and shipped approximately 24 h before use. Upon arrival, blood was warmed to 37 °C then combined with a 0.85% sodium chloride and 0.2% saponin solution in a 1:11 volumetric ratio and incubated in a 37 °C water bath for 15 min. The hemolyzed solution was passed through a 25 mm 5.0 μm pore size syringe filter. The used filter disks were transferred to petri dishes filled with RPMI 1640 culture media with 1% penicillin/streptomycin (0.1 mg/mL) and incubated at 37 °C for 2 h while microfilariae (mf) separated from the disks. Disks were discarded and mf titered to 5 mf/μL.
Aliquots of titered mf were incubated on a heating block at 60 °C for 1 h to produce heat killed positive controls. One μL of 100× drug was aliquoted to each well of a 96-well plate; 100 μL of live mf were added to treatment wells and 100 μL of heat killed mf were added to positive control wells (for a total of 500 mf/well). Plates were sealed with a breathable plate cover and maintained at 37 °C and 5% atmospheric CO2. […] Image analysis and the subsequent measurement of optical flow and fluorescence was performed using wrmXpress v1.3.02[71]. […]

SMILES	result in previous counter-screens (HEK293 cells)	activity in preliminary HEK293 cell-based assays (HEK293 cells; ref Burns et al., 2015)	impact on IVM's ability to paralyze Dirofilaria [1]	optical_flow [1]
CCC1CCC(N2CCN(c3ccc([N+](=O)[O-])cc3)CC2)CC1 (stereo not shown) [Nemacol-2]	adverse effects	higher activity	–	–
O=[N+]([O-])c1ccc(N2CCN(CC3CCCCC3)CC2)cc1 [Nemacol-1]	–	–	no impact	64671429 and 95056554 and 124845938 and 124294468

Reference: PMC10066365, “Nemacol is a small molecule inhibitor of C. elegans vesicular acetylcholine transporter with anthelmintic potential” (Nature Communications, 2023)
